# Experimental data taken from patent publication US12409179B2 (GENEROS BIOPHARMA LTD., priority 2019, dated 2025).
# Legend:
# [1] = system: adjuvant-induced arthritis in rats; test: Embodiment 3: oral Nib1 and methotrexate in adjuvant-induced arthritis in rats (joint score, paw volume, AUC); type: in vivo, Lewis rat; settings: oral, Tofacitinib 5 mpk, MTX 0.05 mpk, Nib1 1 mpk, Nib1 1 mpk + MTX 0.05 mpk
# [2] = system: rat adjuvant-induced arthritis model; test: Embodiment 2: oral Nib1 and medium-dose methotrexate in rat adjuvant-induced arthritis model (joint score, paw volume, AUC); type: in vivo, Lewis rat; settings: MTX 0.5 mpk, Nib1 5 mpk, Nib1 5 mpk + MTX 0.5 mpk
structure (smiles),measurement,setting,value
C[C@@H]1CCN(C(=O)CC#N)C[C@@H]1N(C)c1ncnc2[nH]ccc12 [Tofacitinib],Relative to G2 percentage (%) (AUC of changes in paw volume),"[1]; Embodiment 3, G2 = Vehicle",59.2%
same,Area under the curve AUC (ml*day) of changes in paw volume,[1]; Embodiment 3,11.27 mL·days
same,"Clinical scoring of arthritis (sum of the scores of the quadrupedal joints), Average value",[1]; day 0,0.00
same,"volume of the right hind foot, Average value",[1]; day 0,1.31 mL
same,"Clinical scoring of arthritis (sum of the scores of the quadrupedal joints), Average value",[1]; day 8,0.33
same,"volume of the right hind foot, Average value",[1]; day 8,1.40 mL
same,"Clinical scoring of arthritis (sum of the scores of the quadrupedal joints), Average value",[1]; day 11,2.67
same,"volume of the right hind foot, Average value",[1]; day 11,1.76 mL
same,"Clinical scoring of arthritis (sum of the scores of the quadrupedal joints), Average value",[1]; day 13,4.33
same,"Clinical scoring of arthritis (sum of the scores of the quadrupedal joints), Average value",[1]; day 15,5.67
same,"volume of the right hind foot, Average value",[1]; day 15,2.27 mL
same,"Clinical scoring of arthritis (sum of the scores of the quadrupedal joints), Average value",[1]; day 18,6.33
same,"volume of the right hind foot, Average value",[1]; day 18,2.40 mL
same,"Clinical scoring of arthritis (sum of the scores of the quadrupedal joints), Average value",[1]; day 21,6.22
same,"volume of the right hind foot, Average value",[1]; day 22,2.52 mL
same,"Clinical scoring of arthritis (sum of the scores of the quadrupedal joints), Average value",[1]; day 24,5.33
same,Relative to G2 percentage (%) (AUC of changes in paw volume),"[2]; Embodiment 2, G2 = Vehicle, Tofacitinib 5 mpk",44.3%
same,Total area (AUC of changes in paw volume),"[2]; Embodiment 2, Tofacitinib 5 mpk, in mL·day",16.61
same,"Clinical scoring of arthritis (sum of the scores of the quadrupedal joints), Average value","[2]; day 0, Tofacitinib 5 mpk",0
same,"paw volume (right hind foot), Average value","[2]; day 0, Tofacitinib 5 mpk",1.01 mL
same,"Clinical scoring of arthritis (sum of the scores of the quadrupedal joints), Average value","[2]; day 7, Tofacitinib 5 mpk",0.50
same,"paw volume (right hind foot), Average value","[2]; day 7, Tofacitinib 5 mpk",1.57 mL
same,"Clinical scoring of arthritis (sum of the scores of the quadrupedal joints), Average value","[2]; day 13, Tofacitinib 5 mpk",1.38
same,"paw volume (right hind foot), Average value","[2]; day 13, Tofacitinib 5 mpk",1.80 mL
same,"Clinical scoring of arthritis (sum of the scores of the quadrupedal joints), Average value","[2]; day 15, Tofacitinib 5 mpk",3.50
same,"paw volume (right hind foot), Average value","[2]; day 15, Tofacitinib 5 mpk",1.81 mL
same,"Clinical scoring of arthritis (sum of the scores of the quadrupedal joints), Average value","[2]; day 17, Tofacitinib 5 mpk",4.88
same,"paw volume (right hind foot), Average value","[2]; day 17, Tofacitinib 5 mpk",1.85 mL
same,"Clinical scoring of arthritis (sum of the scores of the quadrupedal joints), Average value","[2]; day 20, Tofacitinib 5 mpk",5.13
same,"paw volume (right hind foot), Average value","[2]; day 20, Tofacitinib 5 mpk",1.90 mL
same,"Clinical scoring of arthritis (sum of the scores of the quadrupedal joints), Average value","[2]; day 22, Tofacitinib 5 mpk",5.25
same,"paw volume (right hind foot), Average value","[2]; day 22, Tofacitinib 5 mpk",1.89 mL
same,"Clinical scoring of arthritis (sum of the scores of the quadrupedal joints), Average value","[2]; day 24, Tofacitinib 5 mpk",4.75
same,"paw volume (right hind foot), Average value","[2]; day 24, Tofacitinib 5 mpk",1.81 mL
same,"Clinical scoring of arthritis (sum of the scores of the quadrupedal joints), Average value","[2]; day 27, Tofacitinib 5 mpk",4.50
same,"paw volume (right hind foot), Average value","[2]; day 27, Tofacitinib 5 mpk",1.76 mL
same,"Clinical scoring of arthritis (sum of the scores of the quadrupedal joints), Average value","[2]; day 29, Tofacitinib 5 mpk",4.38
same,"paw volume (right hind foot), Average value","[2]; day 29, Tofacitinib 5 mpk",1.74 mL
same,"Clinical scoring of arthritis (sum of the scores of the quadrupedal joints), Average value","[2]; day 31, Tofacitinib 5 mpk",4.38
same,"paw volume (right hind foot), Average value","[2]; day 31, Tofacitinib 5 mpk",1.71 mL
same,"Clinical scoring of arthritis (sum of the scores of the quadrupedal joints), Average value","[2]; day 34, Tofacitinib 5 mpk",4.25
same,"paw volume (right hind foot), Average value","[2]; day 34, Tofacitinib 5 mpk",1.01 mL
